Laboratory results taken from patent US20220105192A1, “COMPOSITION, METHOD AND USE THEREOF” (RYBOQUIN COMPANY LTD, priority 2019, published 2022).

Columns and labels:
ITCH mRNA [1] = test: ITCH mRNA knockdown by qPCR after LipofectAMINE 2000 transfection, Kelly cells; assay type: cell-based
Experimental: (§1) Transfection with LipofectAMINE 2000: one day before transfection, cells were plated at 8×10^4 cells per well for 24-well plate or 1.5×10^5 cells per well for 6-well plate in culture medium. On the day of transfection, LipofectAMINE 2000 (Thermal Fisher) or ITCH/Irrelevant siRNA (Eurogentec) was pre-diluted in OptiMEM (Thermal Fisher) with various concentrations and mixed to form complexes at room temperature (RT) for 25 min before adding to cells. mRNAs or protein lysates were collected 72 hours after transfection for further analysis.
(§2) Real-time PCR: cDNA from each mRNA sample was synthesized using superscript III first strand synthesis kit (Thermal Fisher). To determine the ITCH expression, real time PCR was performed using SYBR-green qPCR kit (Eurogentec), using beta-actin or SDHA (sequence details as above) as endogenous control. The qPCR was run using either StepOne plus qPCR machine (Thermal Fisher) or CFX96 qPCR system (Bio-Rad). Results were analysed using their corresponding software.
(§3) To determine ITCH silencing in neuroblastoma cells in vitro, neuroblastoma cells were transfected with ITCH siRNA, using LipofectAMINE 2000 as the transfection reagent. Cells were transfected with either, a) ITCH siRNA (6.25 nM to 100 nM) using 2 μl/well LipofectAMINE 2000 or b) Different amounts of LipofectAMINE2000 (0.5 μl/well, 1 μl/well and 2 μl/well) with 100 nM ITCH siRNA for 4 hours in OptiMEM, and then change into complete medium for a further 72 hours.
(§4) The ITCH mRNA levels were determined by qPCR, and cells transfected with irrelevant siRNA were used as the control.

Kelly cells = test: SubG1 analysis (apoptosis) of transfected Kelly cells after 4 Gy irradiation; assay type: cell-based; settings: 4 Gy irradiation three days after transfection, analysed one day after irradiation
Experimental: SubG1 analysis: to examine the effects of ITCH silencing on the apoptosis of neuroblastoma cells upon irradiation, Kelly cells were firstly transfected with ITCH siRNA as described above, using irrelevant siRNA as control. Cells were exposed to 4 Gy irradiation three days after transfection. 24 hours after irradiation, cells were trypsinized and centrifuged at 2000 rpm, for 5 min. Pre-cold 70% ethanol was then added dropwise to cell pellet, and the cells were fixed at 4° C. for 30 min before centrifuge again and the cell pellet washed with citric buffer twice before adding 50 μl RNase followed by 50 μg/ml PI (propidium iodide) for 5 min. The cells were then pelleted again at 2000 rpm for 5 min, and re-suspended in 0.5 ml PBS for FACS (fluorescent associated cell sorting) analysis. The cell cycle profile was acquired using FACS calibur machine and the percentage of cells in the SubG1 region was calculated using Flowjo software.
Kelly cells were transfected with ITCH and irrelevant siRNA, respectively. Three days later, cells were subjected to 4 Gy irradiation. The subG1 population was analysed one day after the irradiation. […] This difference was statistically significant between the 2 groups (p<0.001, Mann-Whitney test).

Itch protein [2] = test: Western blot of Itch protein after siRNA transfection, Kelly cells; assay type: cell-based
Experimental: as §1
[…] 100 μl of lysis buffer was added to each well of the 6-well plate, and left on ice for 10 minutes. Samples were collected and boiled for 3 minutes and then centrifuged at 14,000 g for 10 minutes at 4° C. The supernatants were stored at −80° C. until needed. 30 μl/well of each sample were loaded onto NuPAGE Novex 10% bis-Tris Gel, and run at a constant voltage of 150V for 1 hour, before being transferred to a nitrocellulose membrane at 300 mA for 2 hours. The membrane was then blocked with Odyssey block solution (LI-COR Biosciences) for 60 min, incubated by primary antibodies of mouse anti-ITCH antibody (1:2000, BD) or rabbit anti-TP73 (1:1000, Generon), and mouse anti-beta actin (1:5000, Sigma) overnight at 4° C. […]

Itch protein [3] = test: Western blot of Itch protein after siRNA transfection, BE2 cells; assay type: cell-based; settings: 72 hours after transfection, in comparison to irrelevant siRNA treated cells
Experimental: as §1
Western blot: 72 hours after transfection, protein was extracted in RIPA (Radio-Immunoprecipitation Assay) lysis buffer (Sigma) containing a complete protease inhibitor cocktail (1:100, Roche). 100 μl of lysis buffer was added to each well of the 6-well plate, and left on ice for 10 minutes. Samples were collected and boiled for 3 minutes and then centrifuged at 14,000 g for 10 minutes at 4° C. The supernatants were stored at −80° C. until needed. 30 μl/well of each sample were loaded onto NuPAGE Novex 10% bis-Tris Gel, and run at a constant voltage of 150V for 1 hour, before being transferred to a nitrocellulose membrane at 300 mA for 2 hours. […]

TP73 = test: Western blot of TP73 after ITCH siRNA transfection, Kelly cells; assay type: cell-based; settings: LipofectAMINE2000, samples at 1, 2, 3, 6 days and D6+3, western blot normalized to β-actin
Experimental: […] 100 μl of lysis buffer was added to each well of the 6-well plate, and left on ice for 10 minutes. Samples were collected and boiled for 3 minutes and then centrifuged at 14,000 g for 10 minutes at 4° C. The supernatants were stored at −80° C. until needed. 30 μl/well of each sample were loaded onto NuPAGE Novex 10% bis-Tris Gel, and run at a constant voltage of 150V for 1 hour, before being transferred to a nitrocellulose membrane at 300 mA for 2 hours. The membrane was then blocked with Odyssey block solution (LI-COR Biosciences) for 60 min, incubated by primary antibodies of mouse anti-ITCH antibody (1:2000, BD) or rabbit anti-TP73 (1:1000, Generon), and mouse anti-beta actin (1:5000, Sigma) overnight at 4° C. After washing with PBS (phosphate-buffered saline) containing 1% Tween 20 (PBST) for 15 min×3 times at room temperature, the membrane was then incubated with IRDye 680 RD goat anti-rabbit and IRDye 800 CW goat anti-mouse 2nd antibodies (1:15000, LI-COR Biosciences) for 1 hour at RT. The image of the blotted membrane was acquired by Odyssey Clx infrared imaging system (LI-COR Biosciences) using image studio software.
Kelly cells were transfected with ITCH siRNA or irrelevant siRNA in 6-well plates using LipofectAMINE2000. The protein samples were collected 1 day, 2 days, 3 days and 6 days after transfection. […]

ITCH mRNA [4] = test: In vivo silencing of ITCH in neuroblastoma (Kelly) xenograft tumours, real time RT-PCR; parameters: species or system mouse; settings: for Differences in % (ITCH SiRNA vs Irre SiRNA), relative ITCH expression <0.8 / Differences in % (ITCH SiRNA vs Irre SiRNA), relative ITCH expression <1 / % of samples with relative ITCH expression <0.8 / % of samples with relative ITCH expression <1 / Number of samples with relative ITCH expression <0.8 / Number of samples with relative ITCH expression <1: 24 h after injection; for % of samples with relative ITCH expression <0.8 / % of samples with relative ITCH expression <1 / Number of samples with relative ITCH expression <0.8 / Number of samples with relative ITCH expression <1: n number 24; for more samples expressing lower level of ITCH (relative expression <0.8) in treated group than in control group: 48 h after delivery; for ITCH silencing: 48 hours after delivery, vs irrelevant siRNA group; for Relative expression of ITCH/SDHA (mean ± SEM) / Relative expression of ITCH/β-actin (mean ± SEM): xenograft tumours
Experimental: Establishment of the xenograft neuroblastoma model and in vivo transfection of ITCH siRNA with nanoparticles: 6-8 week old NSG-SCID female mice were ordered from Charles River laboratories. All procedures were approved by UCL animal care policies and were carried out under Home Office Licenses issued in accordance with the United Kingdom Animals (Scientific Procedures) Act 1986 (UK). The mice were acclimatized for 1-2 weeks before engrafting the neuroblastoma cells. On the day of injection, Kelly cells were trypsinized and re-suspended in medium at a density of 3×10^6 cells/100 μl. 100 μl cell suspension was mixed with equal volume of Matrigel (BD biosciences) on ice and immediately injected subcutaneously into the left or right upper thigh of the mouse. The body weight and the tumour size/volume of each mouse were monitored from D4 after engraftment. The in vivo administration of the ITCH siRNA nanoparticles was performed on mouse once its tumour grew bigger than 5mm at both dimensions. The nanoparticle formulation for in vivo study was also prepared at the 1:4:1 ratio, using cationic lipid AT-1, which contains 1% PEG and the peptide used was ME27. 1 mg siRNA/kg of nanoparticles was injected intravenously into each mouse. The tumour was harvested either 24 hours or 48 hours after administration, and processed for qPCR analysis.
Real time RT-PCR analysis of tumour samples: each tumour was divided into 4 parts and mRNA was extracted respectively for real time RT-PCR analysis. iTaq Universal SYBR Green One-Step Kit was used in this assay. For normalization, 2 separate housekeeping genes, beta-actin and SDHA (Fisher M, 2005) were included. As there were in total 104 samples to test, it was not possible to fit all samples in a single 96 well testing plate. Therefore, sample 05 c was chosen, from an untreated tumour sample as a common control. This sample was included in every plate that was run and all the data from each plate were calculated relative to this sample (the ddCT value of each sample was calculated by subtracting the deICT value of sample 05 c).

ITCH mRNA [5] = test: ITCH mRNA knockdown by qPCR after LipofectAMINE 2000 transfection, BE2 cells; assay type: cell-based
Experimental: as §1, §2, §3, §4

[6] = 6.25 nM siRNA, 2 μl/well LipofectAMINE 2000, qPCR, control irrelevant siRNA
[7] = 12.5 nM siRNA, 2 μl/well LipofectAMINE 2000, qPCR, control irrelevant siRNA
[8] = 25 nM siRNA, 2 μl/well LipofectAMINE 2000, qPCR, control irrelevant siRNA
[9] = 50 nM siRNA, 2 μl/well LipofectAMINE 2000, qPCR, control irrelevant siRNA
[10] = 100 nM siRNA, 2 μl/well LipofectAMINE 2000, qPCR, control irrelevant siRNA
[11] = 24 hours after i.v. 1 mg siRNA/kg nanoparticles (AT-1, ME27)
[12] = 48 hours after i.v. 1 mg siRNA/kg nanoparticles (AT-1, ME27)

## ITCH siRNA: siRNA, sense strand 5′-GCUGUUGUUUGCCAUAGAA55-3′ (SEQ ID NO 003), antisense strand 5′-UUCUAUGGCAAACAACAGC55-3′ (SEQ ID NO 004) (Eurogentec) (listed as RNA, chemistry not given here)
ITCH mRNA [1]; [6]
  ITCH knockdown: 64.7%
ITCH mRNA [1]; [7]
  ITCH knockdown: 77.8%
ITCH mRNA [1]; [8]
  ITCH knockdown: 73.5%
ITCH mRNA [1]; [9]
  ITCH knockdown: 89%
ITCH mRNA [1]; 100nM SiRNA, 0.5 μl/well LipofectAMINE 2000
  ITCH knockdown: 85%
ITCH mRNA [1]; 100nM SiRNA, 1 μl/well LipofectAMINE 2000
  ITCH knockdown: 83%
ITCH mRNA [1]; 100nM SiRNA, 2 μl/well LipofectAMINE 2000 (LipofectAMINE amount series)
  ITCH knockdown: 78.8%
ITCH mRNA [1]; [10]
  ITCH knockdown: 78%
Kelly cells
  percentage of SubG1 (apoptotic) cells: 8.36%
Itch protein [2]; 72 hours after transfection, western blot, in comparison to non-transfected cells
  remaining Itch protein level: 31.6%
Itch protein [2]; LipofectAMINE2000, 1 day to 6 days after the 1st transfection, vs irrelevant siRNA, normalized to β-actin
  Itch protein level, time course: downregulation of Itch protein was observed
Itch protein [3]
  changes in Itch protein level: no changes
TP73
  TP73 protein level, time course: upregulation was only detected at day 3 samples and day 6 samples which had been transfected twice
ITCH mRNA [4]; normalized to SDHA
  Differences in % (ITCH SiRNA vs Irre SiRNA), relative ITCH expression <0.8: 12.5%
  Differences in % (ITCH SiRNA vs Irre SiRNA), relative ITCH expression <1: 4.17%
  % of samples with relative ITCH expression <0.8: 25%
  % of samples with relative ITCH expression <1: 41.67%
  Number of samples with relative ITCH expression <0.8: 6
  Number of samples with relative ITCH expression <1: 10
  more samples expressing lower level of ITCH (relative expression <0.8) in treated group than in control group: 35%
  ITCH silencing: 14.6%
ITCH mRNA [4]; normalized to β-actin
  Differences in % (ITCH SiRNA vs Irre SiRNA), relative ITCH expression <0.8: −16.67%
  Differences in % (ITCH SiRNA vs Irre SiRNA), relative ITCH expression <1: 8.33%
  % of samples with relative ITCH expression <0.8: 16.67%
  % of samples with relative ITCH expression <1: 45.83%
  Number of samples with relative ITCH expression <0.8: 4
  Number of samples with relative ITCH expression <1: 11
  more samples expressing lower level of ITCH (relative expression <0.8) in treated group than in control group: 27.14%
  ITCH silencing: 19.15%
ITCH mRNA [4]; neuroblastoma xenograft model, nanoparticles, 48 hours after transfection
  ITCH silencing (summary): 15-20%
ITCH mRNA [4]; [11]
  Relative expression of ITCH/SDHA (mean ± SEM): 1.18 ± 0.10
  Relative expression of ITCH/β-actin (mean ± SEM): 1.05 ± 0.06
ITCH mRNA [4]; [12]
  Relative expression of ITCH/SDHA (mean ± SEM): 0.82 ± 0.05
  Relative expression of ITCH/β-actin (mean ± SEM): 0.76 ± 0.05
ITCH mRNA [5]; [6]
  ITCH knockdown: -39%
ITCH mRNA [5]; [7]
  ITCH knockdown: 54%
ITCH mRNA [5]; [8]
  ITCH knockdown: 48.7%
ITCH mRNA [5]; [9]
  ITCH knockdown: 71.8%
ITCH mRNA [5]; 100 nM siRNA, 0.5 μl/well LipofectAMINE 2000
  ITCH knockdown: 88.7%
ITCH mRNA [5]; 100 nM siRNA, 1 μl/well LipofectAMINE 2000
  ITCH knockdown: 49%
ITCH mRNA [5]; 100 nM siRNA, 2 μl/well LipofectAMINE 2000 (LipofectAMINE amount series)
  ITCH knockdown: 34%
ITCH mRNA [5]; [10]
  ITCH knockdown: 38.2%
